# Like-named read-outs stand apart in the source and are kept apart here.
# Columns and labels:
# [1] = target: ScFv encoded by pRAS111 (ScFvNP, VHNP (G4S)3 VλJ558L, SEQ ID No 3); assay: ELISA binding and competition of pRAS111 ScFv on a NIP15-BSA coat; parameters: species or system mouse; settings: read-out: binding affinity for NP, Kd
# Method: Filtered bacterial supernatants were applied to wells of a 96-well plate previously coated with […] NIP15 -BSA or […] egg lysozyme, and bound protein was detected by serial incubation with biotinylated Gαmλ antiserum and HRPO-streptavidin conjugate. Colour changes were generated by incubation with ABTS and were monitored at 405 nm.
# A soluble protein present in the growth medium of JM109 (DE3)/pRAS111 cultures, but not in cultures of JM109 (DE3), binds NIP15 -BSA, but not lysozyme (FIG. 5). Filtered bacterial growth medium recovered after induction of pRAS111 protein was applied to wells of an ELISA plate coated with 10 μg.ml^-1 NIP15 -BSA (.circle-w/dot.) or 300 μg.ml^-1 hen egg lysozyme (.diamond-solid.). Bound protein was detected by serial incubation with biotinylated Gαmλ (Goat anti-mouse lambda light chain) antisera and horseradish peroxidase conjugated streptavidin diluted in blocking buffer, and colour changes generated by addition of ABTS were monitored at 405 nm. A soluble protein present in the growth medium of JM109(DE3)/pRAS111 cultures, but not in cultures of JM109(DE3), binds NIP15 -BSA, can be competed with NIP15 -BSA (FIG. 6). […] Bound protein was detected by serial incubation with biotinylated Gαmλ antisera and horseradish peroxidase conjugated streptavidin, and colour changes generated by addition of ABTS were monitored at 405 nm.
# [2] = tested on: pRAS111 ScFvNP protein (VHNP (G4S)3 VλJ558L, SEQ ID No 3); assay: ELISA-based affinity determinations of pRAS111 ScFvNP protein (methods of Mariani et al 1987 and Hogg et al 1987); type: binding, mouse; settings: for Kd: antigen coat
# From the text: Affinity of pRAS111 ScFv for NIP was estimated firstly by adapting the method of Mariani et al (1987) Molec. Immunol. […] This approximation only holds true if the number of available binding sites per well is sufficiently low that their contribution is insignificant. Determinations of Kapp should approach Kactual as the amount of antigen per well is reduced.
# To confirm the accuracy of this approach, similar estimations of K were made using the method of Hogg et al (1987) Molec. Immunol. 24, 797-801) in the absence of competing antigen, by calculating the slope of the linear portion of a plot of A450 /[ScFvNP ] v A450, where A450 /[ScFvNP ]=fKn-fK(A450), A450 is the absorbance at 450 nm, [ScFvNP ] is the concentration of added ScFvNP, n is the concentration of available binding sites and f is the valency of the ScFvNP for NIP. A value of 1 was assigned to f.
# [3] = concn 5 mg ml^-1 of coating buffer, no competing antigen, f = 1, read-out: K, Hogg et al (1987) (converted)
# [4] = concn 5 mg ml^-1 of coating buffer, read-out: K, Mariani et al (1987) (converted)
molecule,measurement,setting,value
"O=C(O)Cc1ccc(O)c([N+](=O)[O-])c1 [NP, 4-hydroxy-3-nitrophenylacetic acid]",Kd,[1],4 nM
NIP conjugated to BSA: hapten NIP coupled to BSA via NIP-cap-OSu,affinity for NIP conjugated to BSA,[2]; pH 7.4,1-3×10^8 M^-1
"O=C(O)Cc1cc(I)c(O)c([N+](=O)[O-])c1 [NIP, 4-hydroxy-3-iodo-5-nitrophenylacetic acid]","Kapp, affinity for NIP (K)","[2]; method of Mariani et al (1987), Ct50 = 1/Kapp, at low amount of antigen per well",2-3×10^8 M^-1
"NIP16 BSA: high coupling ratio NIP-BSA, 16.4 haptens per protein molecule",Kd,"[2]; concn 1 mg ml^-1 of coating buffer, no competing antigen, f = 1, read-out: K, Hogg et al (1987) (converted)",1.23 nM
same,Kd,"[2]; concn 1 mg ml^-1 of coating buffer, read-out: K, Mariani et al (1987) (converted)",1.22 nM
same,Kd,[2]; [3],0.625 nM
same,Kd,[2]; [4],0.4 nM
"NIP4 BSA: low coupling ratio NIP-BSA, 3.7 haptens per protein molecule",Kd,[2]; [3],5.56 nM
same,Kd,[2]; [4],4 nM
same,Kd,"[2]; concn 10 mg ml^-1 of coating buffer, no competing antigen, f = 1, read-out: K, Hogg et al (1987) (converted)",8.33 nM
same,Kd,"[2]; concn 10 mg ml^-1 of coating buffer, read-out: K, Mariani et al (1987) (converted)",3.45 nM
